Tests used:
[1] = tested on: mouse embryo fibroblast line C8; assay: Apoptosis assay in serum-starved C8 cells; assay type: cell-based
Protocol: (§1) To verify the induction of secreted mitogenic and anti-apoptotic factors by p21, conditioned media from IPTG-treated p21-9 cells were tested to investigate whether they would have an effect on cell growth and apoptosis. In these experiments, conditioned media were prepared by plating 10^6 p21-9 cells per 15 cm plate in the presence of DMEM/10% FCS. The next day, IPTG was added to a final concentration of 50 μM, and this media was replaced three days later with DMEM supplemented with 0.5% FCS and 50 μM IPTG. Two days later (days 3-5 of IPTG treatment), this conditioned media was collected and stored at 4° C. up to 15 days before use. Control media were prepared by adding IPTG-free DMEM/0.5% FCS to untreated cells grown to the same density as IPTG-treated cells and collecting the media two days thereafter.
The effect of this conditioned media on apoptosis was also determined. These experiments used a mouse embryo fibroblast line C8, immortalized by E1A. […] Apoptosis was analyzed by plating 3×10^5 C8 cells per 6-cm plate, and replacing the media on the following day with fresh media supplemented with 0.4% serum or with conditioned media (no fresh serum added). DNA content analysis and DAPI staining were carried out after 24 hrs and 48 hrs, and relative cell numbers were measured by methylene blue staining (Perry et al., 1992, Mutat. Res. 276: 189-197) after 48 hrs in low-serum media.

[2] = tested on: induction of luciferase expression by p21 from the NK4 promoter in LuNK4p21 cells; assay: Luciferase assay in LuNK4p21 cell line (NK4 promoter-luciferase, IPTG-inducible p21); assay type: cell-based, human; settings: for induction of luciferase expression by IPTG in the presence of NSAID: 20 hr treatment after 16 hrs with 50 μM IPTG
Protocol: To develop a stably transfected cell line with p21-regulated luciferase expression, the NK4 promoter-luciferase construct, described in Example 8 and termed pLuNK4, was introduced into HT1080 p21-9 cells, which carry IPTG-inducible p21, by cotransfection with pBabePuro carrying puromycin N-acetyltransferase as a selectable marker. Transfection was carried out using LIPOFECTAMTNE 2000 (Life Technologies, Inc., Gaithersburg, Md.), using a 10:1 ratio of pLuNK4 and pBabePuro. Stable transfectants were selected using 1 μg/mL puromycin for 5 days.
This assay was performed as follows. Cells were plated at a density of 40,000 cells/well in 12 well plates in 1 mL of media containing penicillin/streptomycin, glutamine and 10% fetal calf serum (FCS). After attachment, cells were treated with 50 μM IPTG or left untreated for different periods of time. Luciferase activity was then measured as described in Example 8 above. An additional aliquot was removed from the cell lysate to measure protein concentration using the Bio-Rad protein assay kit (Bradford assay). Luciferase activity for each sample was normalized to protein content and expressed as luciferase activity/μg protein.
Luciferase assays were performed substantially as described in Example 9. Luciferase activity was measured after 16 hrs of incubation with or without 50 μM IPTG, followed by an additional 20 hr treatment in the presence or in the absence of 20 mM sodium salicylate, 1 mM sulindac, or 10 mM aspirin. […] NSAID concentrations were based on the pharmacologic concentrations of these agents in the serum of patients required for their anti-inflammatory properties (Yin et al., 1998, ibid.).

[3] = tested on: NFκB transcriptional activity (pNFkB-Luc) in HT1080 p21-9 cells; assay: Transient transfection assay with pNFkB-Luc in HT1080 p21-9 cells; assay type: cell-based, human; settings: 50 μM IPTG three days; pNFkB-Luc mixed with negative control E1AΔN/C
Protocol: Plasmid clones for each promoter construct were tested for p21-regulation by a transient transfection assay. Transient transfection of HT1080 p21-9 cells was carried out by electroporation, essentially as described in the Bio-Rad protocols. For each electroporation, p21-9 cells were grown to confluence in 15 cm plates using DMEM supplemented with 10% FC2 serum and containing penicillin, streptomycin and glutamine.. The cells were then trypsinized, resuspended in Opti-MEM medium (GibcoBRL) and spun down at 1,000 rpm in an IEC HN-SII centrifuge for 10 minutes. Following centrifugation the media were aspirated and the cells were again resuspended in Opti-MEM at a concentration of 18-20 million cells per ml. […] In preliminary experiments, cell survival and attachment after electroporation was determined to be approximately 33%. […] Luciferase activity was measured using a Turner 20/20 luminometer at 52.1% sensitivity with a 5 second delay period and 10-15 second integration time.
To determine if IPTG-inducible p21 expression in HT 1080 p21-9 cells stimulates the transcriptional activity of NFκB, we have used transient transfection assays to investigate the effect of p21 induction on luciferase expression from the plasmid pNFkB-Luc, commercially available from Stratagene. […] The luciferase activity was measured and normalized to protein content in each sample.

[4] = tested on: human fibrosarcoma cell line HS 15.T; assay: Mitogenic activity assay, 3H-thymidine incorporation; assay type: cell-based; settings: HS 15.T cells
Protocol: as §1
The slow-growing human fibrosarcoma cell line HS 15.T was used to detect mitogenic activity in these conditioned media. For mitogenic activity assays, both types of conditioned media, as well as fresh media and 1:1 mixtures of conditioned media and fresh media were used to test mitogenic activity. In these experiments, the conditioned media were supplemented with 1% or 2% FCS. […] Cells were then collected and their ^3H-thymidine incorporation determined as described by Mosca et al. (1992, Mol. Cell. Biol. 12: 4375-4383).

[5] = tested on: RNA expression of the endogenous p21-inducible genes in LuNK4p21 cells; assay: RT-PCR of endogenous p21-inducible genes in LuNK4p21 cells; assay type: cell-based, human
Protocol: To determine whether NFκB-inhibiting NSAID inhibited not only the induction of transcription from the NK4 promoter but also RNA expression of the endogenous p21-inducible genes, LuNK4p21 cells were plated at 125,000 cells per well in 6-well plates and were either untreated or treated with 50 μM IPTG for 48 hrs (the period of time required for maximal stimulation of p21 -inducible genes; Chang et al., 2000, Proc. Natl. Acad. Sci. USA 97: 4291-4296), in the presence or in the absence of sulindac, at 250 μM, 500 μM or 1 mM concentrations. After this incubation, RNA was extracted from the cells using Qiagen RNeasy Mini Kit, and relative RNA levels of several p21-inducible genes were determined by reverse transcription-PCR (RT-PCR), essentially as described by Noonan et al. (1990, Proc. Natl. Acad. Sci. USA 87: 7160-7164), except that β-actin rather than β2-microglobulin was used for cDNA normalization. The PCR cycles were as follows: for the 1st cycle, 3 min for denaturation, 2 min for annealing and 2 min for extension, and the rest of cycles, 30 sec for denaturation; 30 sec for annealing; and 1 min for extension.

[6] = sulindac 250 μM, 500 μM or 1 mM

SMILES: CC(C)S[C@@H]1O[C@H](CO)[C@H](O)[C@H](O)[C@H]1O [IPTG, isopropyl-β-thiogalactoside]
- effect of IPTG by itself on apoptosis [1]: no effect
- increase of luciferase expression by IPTG ([2]; 50 μM IPTG, absence of NSAID): 3-4 fold
- increase in luciferase levels in IPTG-treated cells ([2]; LuNK4p21 cell line, about 17 hrs): approximately 3 fold
- induction of pNFkB-Luc luciferase in the presence of IPTG [3]: up to 15 fold
- effect of the addition of IPTG to fresh media on 3H-thymidine incorporation [4]: no effect

SMILES: CC(=O)Oc1ccccc1C(=O)O [aspirin]
- induction of luciferase expression by IPTG in the presence of NSAID ([2]; 10 mM aspirin): completely or almost completely abolished

SMILES: CC(C)Cc1ccc(C(C)C(=O)O)cc1 (stereo not shown) [ibuprofen]
- induction of luciferase expression by IPTG in the presence of NSAID ([2]; 25 μM): no significant difference

SMILES: COc1ccc2c(c1)c(CC(=O)O)c(C)n2C(=O)c1ccc(Cl)cc1 [indomethacin]
- induction of luciferase expression by IPTG in the presence of NSAID ([2]; 25 μM): no significant difference

SMILES: O=C([O-])c1ccccc1O.[Na+] [salicylate, sodium salicylate]
- induction of luciferase expression by IPTG in the presence of NSAID ([2]; 20 mM sodium salicylate): completely or almost completely abolished

SMILES: CC1=C(CC(=O)O)c2cc(F)ccc2/C1=C\c1ccc([S+](C)[O-])cc1 (stereo not shown) [sulindac]
- effects of IPTG on the APP gene (RT-PCR) ([5]; 250 and 500 μM sulindac): diminished
- gene expression of all the other tested genes (RT-PCR) ([5]; absence of IPTG, sulindac 250 μM, 500 μM or 1 mM): dose-dependent increase
- NK4 gene expression (RT-PCR) ([5]; absence of IPTG, sulindac 250 μM, 500 μM or 1 mM, 48 hrs): very little effect
- ability of p21 to induce transcription for most of the tested genes ([5]; moderate dose of sulindac (250 μM)): inhibits
- effects of IPTG on the CTGF gene (RT-PCR) ([5]; only by 250 μM sulindac): diminished
- effects of IPTG on the Mac2-binding protein (Mac2-BP) gene (RT-PCR) ([5]; only by 250 μM sulindac): diminished
- effects of IPTG on the p66Shc gene (RT-PCR) ([5]; only by 250 μM sulindac): diminished
- NK4 RNA levels (RT-PCR) ([5]; presence of 50 μM IPTG, sulindac 250 μM, 500 μM or 1 mM, 48 hrs): dose-dependent decrease
- gene expression of the other tested genes (RT-PCR) ([5]; presence of IPTG, highest tested dose of sulindac (1 mM)): did not decrease
- IPTG-induced RNA levels of prosaposin (RT-PCR) [5, 6]: None of the tested sulindac concentrations produced a significant decrease
- IPTG-induced RNA levels of superoxide dismutase 2 (SOD2) (RT-PCR) [5, 6]: None of the tested sulindac concentrations produced a significant decrease
- t-TGase RNA (RT-PCR), compared with NK4 ([5]; with and without 50 μM IPTG, sulindac 250 μM, 500 μM or 1 mM, 48 hrs): Very similar results
- induction of luciferase expression by IPTG in the presence of NSAID ([2]; 1 mM sulindac): completely or almost completely abolished
